Results published in patent US20240067693A1, “POLYPEPTIDES AND USES THEREOF” (MEDIMMUNE LIMITED, priority 2020, published 2024).
Numbered stars: 1 amine (or outer) side, 2 acyl side, 3 side chain; on linkers, the order of the positions; unused ones are H or OH. Bridge positions count the residues as written; N and C are the ends. Square brackets hold non-standard residues; d marks the D form. Side chains are listed from the residue outwards. Peptide text beside a SMILES is read from it. * marks the point of attachment. C18 diacid = O=C(O)CCCCCCCCCCCCCCCCC(=O)*; γGlu = O=C(O)[C@H](CCC(=O)[*:2])N[*:1]; Aib = CC(C)(N)C(=O)O

Experiments:
[1] = molecular target: T1, human amylin receptor (calcitonin receptor co-expressed with receptor activity modifying protein, RAMP3) (hAMYR3) (Homo sapiens, UniProt O60896+P30988); assay: cAMP production in 1321N1 cells with stable recombinant expression of human amylin receptor (hAMYR3); assay type: cell-based; conditions: for Ratio (selectivity hAMYR vs hCTR, ratio of EC50 values at the two receptors): EC50 hCTR / EC50 hAMYR3; for EC50: cAMP, 1321N1 cells, assay buffer with 0.1% BSA, read-out: EC50 (pM) hAMYR3
T1 construct: expressed in transfected cells
T1 sequence (P30988 25-474): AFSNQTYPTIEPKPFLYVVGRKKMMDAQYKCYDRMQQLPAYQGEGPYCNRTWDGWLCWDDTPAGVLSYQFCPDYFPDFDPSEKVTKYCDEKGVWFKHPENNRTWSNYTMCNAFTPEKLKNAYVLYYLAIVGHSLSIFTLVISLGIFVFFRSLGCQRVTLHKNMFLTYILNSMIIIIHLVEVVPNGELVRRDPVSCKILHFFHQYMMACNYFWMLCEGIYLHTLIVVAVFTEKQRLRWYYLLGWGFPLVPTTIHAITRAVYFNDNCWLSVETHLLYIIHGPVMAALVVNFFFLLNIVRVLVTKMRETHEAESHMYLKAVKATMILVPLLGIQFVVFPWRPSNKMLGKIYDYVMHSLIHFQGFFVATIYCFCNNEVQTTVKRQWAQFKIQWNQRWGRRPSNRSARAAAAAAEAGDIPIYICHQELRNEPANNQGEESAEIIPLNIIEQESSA
T1 sequence (O60896 24-148 partner): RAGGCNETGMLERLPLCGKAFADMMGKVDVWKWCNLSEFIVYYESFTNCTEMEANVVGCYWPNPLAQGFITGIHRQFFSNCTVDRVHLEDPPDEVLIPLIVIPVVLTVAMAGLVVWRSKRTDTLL
Procedure, shortened: (§1)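 EC50 values come from 4-parameter logistic fits of HTRF cAMP signal, normalised to maximal calcitonin or amylin effect. Peptides were tested in duplicate for 30 min at RT in IBMX-containing (0.5 mM) BSA/HEPES buffer pH 7.4 on stable 1321N1 (human CTR, AMYR3) or HEK (rat CTR, AMYR3) lines.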

[2] = molecular target: T2, human calcitonin receptor (hCTR) (Homo sapiens, UniProt P30988); assay: cAMP production in 1321N1 cells with stable recombinant expression of human calcitonin receptor (hCTR); assay type: cell-based; conditions: cAMP, 1321N1 cells, assay buffer with 0.1% BSA; read-out: EC50 (pM) hCTR
T2 construct: expressed in transfected cells
T2 sequence (P30988 25-474): T1 sequence (P30988 25-474)
Procedure, shortened: as §1

Row | Ratio (selectivity hAMYR vs hCTR, ratio of EC50 values at the two receptors) [1] | EC50 [1] [pM] | EC50 [2] [pM] | Compound
1 | 30 | 132 | 4010 | CC[C@H](C)[C@H](NC(=O)[C@@H]1CCCN1C(=O)CNC(=O)[C@H](Cc1ccccc1)NC(=O)[C@H](CC(N)=O)NC(=O)C(C)(C)NC(=O)[C@H](CO)NC(=O)[C@H](CO)NC(=O)[C@H](Cc1c[nH]cn1)NC(=O)[C@@H](NC(=O)[C@H](CC(C)C)NC(=O)[C@H](Cc1ccccc1)NC(=O)[C@H](CC(N)=O)NC(=O)[C@H](C)NC(=O)[C@H](CC(C)C)NC(=O)[C@H](CCCNC(=N)N)NC(=O)[C@H](CCC(N)=O)NC(=O)[C@@H](NC(=O)[C@H](C)NC(=O)[C@@H]1CSSC[C@H](NC(=O)[C@@H](N)CCCCNC(=O)CC[C@H](NC(=O)CC[C@H](NC(=O)CCCCCCCCCCCCCCCCC(=O)O)C(=O)O)C(=O)O)C(=O)N[C@@H](CC(N)=O)C(=O)N[C@@H]([C@@H](C)O)C(=O)N[C@@H](C)C(=O)N[C@@H]([C@@H](C)O)C(=O)N1)[C@@H](C)O)C(C)C)C(=O)N[C@@H](CC(C)C)C(=O)N1CCC[C@H]1C(=O)N1CCC[C@H]1C(=O)N[C@H](C(=O)N[C@@H](CCCNC(=N)N)C(=O)N[C@H](C(=O)NCC(=O)N[C@@H](CO)C(=O)N[C@@H](CC(N)=O)C(=O)N[C@H](C(=O)N[C@@H](Cc1ccc(O)cc1)C(N)=O)[C@@H](C)O)C(C)C)[C@@H](C)O [Peptide 67, K(γE-γE-C18diacid)[CNTATC]ATQRLANFLVHSS(Aib)NFGPILPPTRVGSNTY-amide] (H-K([γGlu-γGlu-C18 diacid])CNTATCATQRLANFLVHSS[Aib]NFGPILPPTRVGSNTY-NH2; disulfide 2-7; N-terminus assumed)
2 | 9 | 192 | 1770 | CC[C@H](C)[C@H](NC(=O)[C@@H]1CCCN1C(=O)CNC(=O)[C@H](Cc1ccccc1)NC(=O)[C@H](CC(N)=O)NC(=O)C(C)(C)NC(=O)[C@H](CO)NC(=O)[C@H](CO)NC(=O)[C@H](Cc1c[nH]cn1)NC(=O)[C@@H](NC(=O)[C@H](CC(C)C)NC(=O)[C@H](Cc1ccccc1)NC(=O)[C@H](CC(N)=O)NC(=O)[C@H](C)NC(=O)[C@H](CC(C)C)NC(=O)[C@H](CCCNC(=N)N)NC(=O)[C@H](CCC(N)=O)NC(=O)[C@@H](NC(=O)[C@H](C)NC(=O)[C@@H]1CSSC[C@H](NC(=O)CC[C@H](NC(=O)CCCCCCCCCCCCCCCCC(=O)O)C(=O)O)C(=O)N[C@@H](CC(N)=O)C(=O)N[C@@H]([C@@H](C)O)C(=O)N[C@@H](C)C(=O)N[C@@H]([C@@H](C)O)C(=O)N1)[C@@H](C)O)C(C)C)C(=O)N[C@@H](CC(C)C)C(=O)N1CCC[C@H]1C(=O)N1CCC[C@H]1C(=O)N[C@H](C(=O)N[C@@H](CCCNC(=N)N)C(=O)N[C@H](C(=O)NCC(=O)N[C@@H](CO)C(=O)N[C@@H](CC(N)=O)C(=O)N[C@H](C(=O)N[C@@H](Cc1ccc(O)cc1)C(N)=O)[C@@H](C)O)C(C)C)[C@@H](C)O [Peptide 68, (C18diacid-γE-[CNTATC]ATQRLANFLVHSS(Aib)NFGPILPPTRVGSNTY-amide] ({C18 diacid-γGlu}-CNTATCATQRLANFLVHSS[Aib]NFGPILPPTRVGSNTY-NH2; disulfide 1-6)
3 | 18 | 227 | 4000 | CC[C@H](C)[C@H](NC(=O)[C@@H]1CCCN1C(=O)CNC(=O)[C@H](Cc1ccccc1)NC(=O)[C@H](CC(N)=O)NC(=O)C(C)(C)NC(=O)[C@H](CO)NC(=O)[C@H](CO)NC(=O)[C@H](Cc1c[nH]cn1)NC(=O)[C@@H](NC(=O)[C@H](CC(C)C)NC(=O)[C@H](Cc1ccccc1)NC(=O)[C@H](CC(N)=O)NC(=O)[C@H](C)NC(=O)[C@H](CC(C)C)NC(=O)[C@H](CCCNC(=N)N)NC(=O)[C@H](CCC(N)=O)NC(=O)[C@@H](NC(=O)[C@H](C)NC(=O)[C@@H]1CSSC[C@H](NC(=O)[C@@H](N)CCCCNC(=O)CC[C@H](NC(=O)CC[C@H](NC(=O)CCCCCCCCCCCCCCCCC(=O)O)C(=O)O)C(=O)O)C(=O)N[C@@H](CC(N)=O)C(=O)N[C@@H]([C@@H](C)O)C(=O)N[C@@H](C)C(=O)N[C@@H]([C@@H](C)O)C(=O)N1)[C@@H](C)O)C(C)C)C(=O)N[C@@H](CC(C)C)C(=O)N1CCC[C@H]1C(=O)N1CCC[C@H]1C(=O)N[C@H](C(=O)N[C@@H](CC(N)=O)C(=O)N[C@H](C(=O)NCC(=O)N[C@@H](CO)C(=O)N[C@@H](CCCNC(=N)N)C(=O)N[C@H](C(=O)N[C@@H](Cc1ccc(O)cc1)C(N)=O)[C@@H](C)O)C(C)C)[C@@H](C)O [Peptide 72, K(γE-γE-C18diacid)[CNTATC]ATQRLANFLVHSS(Aib)NFGPILPPTNVGSRTY-amide] (H-K([γGlu-γGlu-C18 diacid])CNTATCATQRLANFLVHSS[Aib]NFGPILPPTNVGSRTY-NH2; disulfide 2-7; N-terminus assumed)
4 | 7 | 256 | 1820 | CC[C@H](C)[C@H](NC(=O)[C@@H]1CCCN1C(=O)CNC(=O)[C@H](Cc1ccccc1)NC(=O)[C@H](CC(N)=O)NC(=O)C(C)(C)NC(=O)[C@H](CO)NC(=O)[C@H](CO)NC(=O)[C@H](Cc1c[nH]cn1)NC(=O)[C@@H](NC(=O)[C@H](CC(C)C)NC(=O)[C@H](Cc1ccccc1)NC(=O)[C@H](CC(N)=O)NC(=O)[C@H](C)NC(=O)[C@H](CC(C)C)NC(=O)[C@H](CCCNC(=N)N)NC(=O)[C@H](CCC(N)=O)NC(=O)[C@@H](NC(=O)[C@H](C)NC(=O)[C@@H]1CSSC[C@H](NC(=O)[C@H](CCCCN)NC(=O)[C@@H](N)CCCCNC(=O)CC[C@H](NC(=O)CCCCCCCCCCCCCCCCC(=O)O)C(=O)O)C(=O)N[C@@H](CC(N)=O)C(=O)N[C@@H]([C@@H](C)O)C(=O)N[C@@H](C)C(=O)N[C@@H]([C@@H](C)O)C(=O)N1)[C@@H](C)O)C(C)C)C(=O)N[C@@H](CC(C)C)C(=O)N1CCC[C@H]1C(=O)N1CCC[C@H]1C(=O)N[C@H](C(=O)N[C@@H](CC(N)=O)C(=O)N[C@H](C(=O)NCC(=O)N[C@@H](CO)C(=O)N[C@@H](CCCNC(=N)N)C(=O)N[C@H](C(=O)N[C@@H](Cc1ccc(O)cc1)C(N)=O)[C@@H](C)O)C(C)C)[C@@H](C)O [Peptide 73, K(γE-C18diacid)K[CNTATC]ATQRLANFLVHSS(Aib)NFGPILPPTNVGSRTY-amide] (H-K([γGlu-C18 diacid])KCNTATCATQRLANFLVHSS[Aib]NFGPILPPTNVGSRTY-NH2; disulfide 3-8; N-terminus assumed)
5 | 13 | 356 | 4570 | CC[C@H](C)[C@H](NC(=O)[C@@H]1CCCN1C(=O)CNC(=O)[C@H](Cc1ccccc1)NC(=O)[C@H](CC(N)=O)NC(=O)C(C)(C)NC(=O)[C@H](CO)NC(=O)[C@H](CO)NC(=O)[C@H](Cc1c[nH]cn1)NC(=O)[C@@H](NC(=O)[C@H](CC(C)C)NC(=O)[C@H](Cc1ccccc1)NC(=O)[C@H](CC(N)=O)NC(=O)[C@H](C)NC(=O)[C@H](CC(C)C)NC(=O)[C@H](CCCNC(=N)N)NC(=O)[C@H](CCC(N)=O)NC(=O)[C@@H](NC(=O)[C@H](C)NC(=O)[C@@H]1CSSC[C@H](NC(=O)[C@H](CCCCN)NC(=O)[C@@H](N)CCCCNC(=O)CC[C@H](NC(=O)CC[C@H](NC(=O)CCCCCCCCCCCCCCCCC(=O)O)C(=O)O)C(=O)O)C(=O)N[C@@H](CC(N)=O)C(=O)N[C@@H]([C@@H](C)O)C(=O)N[C@@H](C)C(=O)N[C@@H]([C@@H](C)O)C(=O)N1)[C@@H](C)O)C(C)C)C(=O)N[C@@H](CC(C)C)C(=O)N1CCC[C@H]1C(=O)N1CCC[C@H]1C(=O)N[C@H](C(=O)N[C@@H](CC(N)=O)C(=O)N[C@H](C(=O)NCC(=O)N[C@@H](CO)C(=O)N[C@@H](CCCNC(=N)N)C(=O)N[C@H](C(=O)N[C@@H](Cc1ccc(O)cc1)C(N)=O)[C@@H](C)O)C(C)C)[C@@H](C)O [Peptide 74, K(γE-γE-C18diacid)K[CNTATC]ATQRLANFLVHSS(Aib)NFGPILPPTNVGSRTY-amide] (H-K([γGlu-γGlu-C18 diacid])KCNTATCATQRLANFLVHSS[Aib]NFGPILPPTNVGSRTY-NH2; disulfide 3-8; N-terminus assumed)
